The values below come from patent publication US20110224197A1, “PYRIMIDINES AND PYRIDINES USEFUL AS INHIBITORS OF PROTEIN KINASES” (Vertex Pharmaceuticals Incorporated, priority 2008, published 2011).

In test [1] the test system is transient middle cerebral artery occlusion (MCAO) in rats. The note with it: after transient MCAO; cited from earlier work.
Test [2] concerns 5-FU treated C57BL/6 mice. The test can be described thus: Leukocytopenia animal model (5-FU). The test is classed as in vivo. From the text: This study evaluates the hematopoietic recovery of peripheral blood and bone marrow cells following treatment with 5-FU (a myeloablative reagent) and compares the recoveries of various doses of the test compound with a cytokine known to enhance recovery rhG-CSF. The introduction of the chemotherapeutic agent causes a decrease in the peripheral blood white blood cell count and in particular, the neutrophil count. […] 5-FU acts by killing all the dividing cells, sparing primitive stem cells which are relatively quiescent and are thus not impacted by the treatment. Following treatment, primitive cells are recruited to proliferate and differentiate, thus re-establishing normal peripheral blood and femoral cell counts. This model may be used to evaluate compounds that could facilitate the recruitment and proliferation of the primitive cells and assess the kinetics of recovery of bone marrow as well as mature cell populations (white blood cells, red blood cells and platelets) in the blood.
One hundred and five C57BL/6 mice at 6-8 weeks of age were purchased from Jackson Labs. All, with the exception of the 4 untreated control mice were treated with 150 mg/kg 5-Fluorouracil (5-FU) interperitoneal (ip) at day 0. The four untreated mice (Group 1) were sacrificed on day 12 and they represent the “normal variability in blood and cell counts”. The 5-FU treated mice were divided equally into 4 distinct groups (Groups 2, 3, 4 and 5). On day −1 (the day before treatment with 5-FU) through to day 12, the mice in group 2 were treated at 8 a.m. and 6 p.m. with just solvent (20% PEG 400/10% Vitamin E TPGS/70% water) and served as the solvent control for groups 4 and 5.
Four mice from this group were sacrificed on days 4, 6, 8, 10 and 12 following the final dose of solvent the morning before sacrificing. On days 1 through 4, the mice in group three were dosed with 50 ug/kg rhG-CSF twice daily with 6 hours separating the daily doses. Four mice from this group were also sacrificed on days 4, 6, 8, 10 and 12. For treatment of test compound, groups 4 and 5, dosing was done as indicated above with the solvent control (2 times daily at 8 am and 6 pm) with compound that was prepared fresh each day.
Compound I-3 was weighed out into 13 vials and an appropriate amount of solvent added to achieve a final concentration for dosing at 30 mg/Kg (high dose). The compound was solubilized by sonication in solvent for 2-3 minutes and then 30% of the volume removed and diluted 1:3 with solvent to prepare compound for dosing at 10 mg/Kg (low dose). This was done daily and delivered to the animal technologist at 1 pm for the evening and next morning dosing. The unused compound was returned and frozen the next day when the freshly prepared sample for the next doses delivered. On days 1 through 12, mice in group 4 received the low dose of compound ([…]) and mice in group 5 received the high dose of compound (30 mg/Kg) twice daily. Four mice were sacrificed for each group on days 4, 6, 8, 10 and 12.
Each time mice were sacrificed from any of the groups, peripheral blood was collected in EDTA microtainer tubes by cardiac puncture. Approximately 400 uL of the blood was sent for analysis of blood indices (WBC, ANC, platelets, hemoglobin and hematocrit) at a central veterinary service laboratory using an automated system. The remainder of the blood was sent to STI where the plasma was separated by centrifugation at 8000 r.p.m. for 10 minutes and stored at −80° C. for future bioassays. Both femurs were also harvested and cells extracted and processed. The femoral cells were counted, red blood cells lysed and the cells subsequently prepared (at 5×10^6 cells/100 uL in Laemmli buffer and an equivalent unprocessed cell pellet) and stored at −80° C. for future protein analyses. Also on day 12, when the animals were sacrificed, their livers were removed and stored in 10% neutral formalin for future analysis. […]

Test [3] deals with GSK-3 α/β pTYR. In words: pTYR biomarker analysis in brain, Post Stroke Model I. The test is classed as in vivo, rat. To be noted: all doses, termination of study. The procedure:
To track the activity of Compound I-3 in the CNS of rats subjected to MCAO, brains were removed and protein lysate was obtained as described above from both vehicle treated and compound treated animals at the termination of the study. Lysates were analyzed by Western blot and probed for GSK-3 α/β pTYR levels.

Test [4] concerns GSK-3α/β pTYR. The test can be described thus: Biomarker for leukocytopenia: pTYR in PBMC (Western blot). The test is classed as in vivo, mice. The note with it: all doses. The procedure:
To track the activity of Compound (I-3) in mice subjected to 5-FU treatment, peripheral blood was removed at time of sacrifice from both compound and vehicle-treated mice and a protein lysate was obtained from peripheral blood mononuclear cells (PBMC) after removal of red blood cells. Lysates were analyzed by Western blot and probed for GSK-3α/β pTYR levels.
(In general: In western blotting, separated proteins are transferred to a membrane and probed.)

Test [5] deals with embolic occlusion of the middle cerebral artery (MCAO) in the rat. The test can be described thus: Post Stroke Recovery Model I (embolic MCAO). It counts as in vivo. The procedure: This study investigates the effect of compounds on volume of cerebral infarction, cell proliferation, and functional recovery after embolic occlusion of the middle cerebral artery (MCAO) in the rat.
Ten Rats, subjected to MCAO (Zhang R L, et. al., 1997 # 1), were randomly assigned to either Vehicle or Compound I-3 after MCAO. The treatment was administered once daily orally starting 24 hours after MCAo for 14 days. 5-bromo-2-deoxyuridine (BrdU, Sigma; 100 mg/kg, i.p.) is administered at 1 day after MCAO, and consecutively for 6 days. Functional assessments are performed before MCAO and at day 1, day 7 and day 14 after MCAO by an investigator who is blinded to the study. The assessment included Neurological Severity Score (mNSS) and Adhesive removal test score, described below. A total of twenty rats are sacrificed at 14 days after MCAO. Three contralateral hemispheres of each group are assigned for analysis. Volume of infarction and cell proliferation in the ipsilateral subventricular zone (SVZ) are measured.
Rats are tested for left forelimb somatosensory deficit with the adhesive removal test (Schallert T, et. al., 1984 # 3). Each animal received 3 trials by placing round strips of packing tape (1.2 cm in diameter) at each testing day and the mean time (seconds) required to remove stimuli from the left forelimb is was recorded.
All the animals are anesthetized with ketamine (44 mg/kg IM) and xylazine (13 mg/kg IM) and sacrificed at fourteen days after MCA occlusion. […] Infarct volumes are measured using a Global Lab Image analysis program (Data Translation). The area of both hemispheres and the area containing the ischemic neuronal damage (mm^2) are calculated by tracing the area on the computer screen. The lesion volume […] is determined by multiplying the appropriate area by the section interval thickness (Chen H, et al., 1992, # 4). […]
To visualize specificity of the immunohischemical reaction, immunostaining of BrdU (a monoclonal antibody against BrdU, 1:100, DAK) is employed. […] BrdU-immunoreactive nuclei in the SVZ are counted on a computer monitor to improve visualization. […]

In test [6] the test system is β-catenin. The test can be described thus: Biomarker for leukocytopenia: β-catenin in PBMC. It counts as in vivo, mice. To be noted: all doses.
Test [7] relates to β-catenin. In words: β-catenin in brain, Post Stroke Model I. It counts as in vivo, rat. The note with it: all doses.
Setting [8] is: once daily orally starting 24 hours after MCAo for 14 days.

On to “IGF-1: insulin growth factor-1, a known GSK-3 inhibitor”, for which, in test [1], the “infarct size in rat brains” value was “reduced infarct size”.
As for `Cc1nc(-c2ccccc2Cl)nc(Nc2n[nH]c3ccc(F)cc23)c1C` [Compound I-3], the “WBC nadir (lowest cell count observed)” value in test [2] (5-FU + Compound I-3 10 mg/Kg twice daily) and in test [2] (5-FU + Compound I-3 30 mg/Kg twice daily) was 4 days throughout. For the same molecule, the “kinetics of the WBC and ANC recovery” value in test [2] (5-FU + high dose (30 mg/Kg twice daily)) was “enhanced”. The “Bone marrow cellularity: recovery to normal values” in test [2] (5-FU + high dose of test compound) was 10 days. For the same molecule, the “bone marrow cell counts versus 5-FU and rhG-CSF” value in test [2] (5-FU and high dose, day 8) is “significantly higher”. Moreover, in test [2] (5-FU and high dose, versus other groups), the “bone marrow cellularity nadir” value is on record as “did not have as low a nadir as other groups”. Also, in test [2] (5FU + high dose, day 8), the Platelet counts result is “soared above the reference ranges”. Moreover, the “kinetics of bone marrow cellular recovery” value in test [2] (Group 5 (high dose) versus Groups 3 and 4) is reported as “fastest”. For the same molecule, in test [2] (high dose), the “WBC and ANC recovery compared to 5-FU and rhG-CSF” value is “comparable”. In test [2] (high dose, days 8 and 10), the “WBC and ANC recovery compared to 5-FU and solvent control” value was “significantly increased”. In addition, the “pTYR signal compared to vehicle treated rats” value in test [3] is “significant reduction”. In test [4], the “pTYR signal compared to vehicle treated animals” value is given as “significant reduction”. The “number of BrdU positive cells in the ipsilateral SVZ compared with vehicles” value in test [5] (14 days after MCAO) is reported as “significantly (p<0.05) increased”. The “adhesive removal test compared with vehicle group” value in test [5] (setting [8]) was “significant (p<0.05) improvement”. Also, the “mNSS test compared with vehicle group” value in test [5] (setting [8]) is on record as “significant (p<0.05) improvement”. Moreover, the “induction of β-catenin” value in test [6] and in test [7] was “no induction” each time.

B1: rhG-CSF: recombinant human granulocyte colony stimulating factor; a cytokine known to enhance recovery (protein, UniProt P09919 31-207, looked up)
Granulocyte …: TPLGPASSLPQSFLLKCLEQVRKIQGDGAALQEKLVSECATYKLCHPEELVLLGHSLGIPWAPLSSCPSQALQLAGCLSQLHSGLFLYQGLLQALEGISPELGPTLDTLQLDVADFATTIWQQMEELGMAPALQPTQGAMPAFASAFQRRAGGVLVASHLQSFLEVSYRVLRHLAQP
For B1, the ANC nadir in test [2] (5-FU + rhG-CSF 50 ug/kg twice daily) was determined as 4 days. For the same molecule, the “WBC nadir (lowest cell count observed)” value in test [2] (5-FU + rhG-CSF 50 ug/kg twice daily, days 1 through 4) amounted to 4 days. The Platelet counts entry in test [2] (5-FU + rhG-CSF, day 8) is “soared above the reference ranges”. Also, in test [2] (5-FU + rhG-CSF, days 4 and 6), the “actual neutrophil counts (ANC)” value is “almost non-detectable levels”.
